Laboratory results published in ChEMBL document CHEMBL5257018, “Novel Strategies for the Treatment of Pseudomonas aeruginosa Infections” (J Med Chem, 2016).
In brackets after ≈: the same amount, converted by molar mass. Each block holds one molecule with its values, some of them ahead of it. Bridge positions count the residues as written; N and C are the ends. Square brackets hold non-standard residues; d marks the D form. Peptide text beside a SMILES is read from it. * marks the point of attachment. Gly(octyl) = CCCCCCCC[C@H](N)C(=O)O; Octanoyl = CCCCCCCC(=O)*; Dab = NCC[C@H](N)C(=O)O

What was measured:
Pseudomonas aeruginosa [1] = test: Antimicrobial activity against polymyxin resistant Pseudomonas aeruginosa assessed as reduction in bacterial growth; assay type: functional
[2] = Half life in mouse; assay type: ADME, organism-based; details: in vivo
[3] = target: T1, PA-I galactophilic lectin (Pseudomonas aeruginosa (strain ATCC 15692 / PAO1 / 1C / PRS 101 / LMG12228), UniProt Q05097); test: Binding affinity to Pseudomonas aeruginosa PAO1 LecA assessed as dissociation constant
T1 sequence (Q05097 whole entry): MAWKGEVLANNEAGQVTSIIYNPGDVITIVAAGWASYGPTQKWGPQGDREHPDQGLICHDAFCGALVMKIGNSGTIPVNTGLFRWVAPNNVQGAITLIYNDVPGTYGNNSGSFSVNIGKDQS

Hexosaminidase D = target: T2, Hexosaminidase D (Homo sapiens, UniProt Q8WVB3); test: Inhibition of human recombinant beta-hexosaminidase
T2 sequence (Q8WVB3 whole entry): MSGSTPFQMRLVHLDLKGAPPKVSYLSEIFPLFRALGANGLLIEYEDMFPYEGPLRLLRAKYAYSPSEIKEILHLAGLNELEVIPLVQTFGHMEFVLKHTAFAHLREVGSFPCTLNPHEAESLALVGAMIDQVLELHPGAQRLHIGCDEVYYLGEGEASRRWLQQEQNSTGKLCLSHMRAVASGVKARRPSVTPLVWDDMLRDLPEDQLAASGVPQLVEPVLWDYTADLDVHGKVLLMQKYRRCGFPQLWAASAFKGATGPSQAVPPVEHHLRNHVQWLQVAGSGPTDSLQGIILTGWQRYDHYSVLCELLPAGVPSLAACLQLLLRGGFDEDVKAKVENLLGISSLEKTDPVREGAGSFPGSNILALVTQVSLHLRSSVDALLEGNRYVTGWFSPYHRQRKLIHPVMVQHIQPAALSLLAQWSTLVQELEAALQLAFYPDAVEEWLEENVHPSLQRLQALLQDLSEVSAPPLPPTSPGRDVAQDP

Pseudomonas aeruginosa [4] = test: Antibacterial activity against Pseudomonas aeruginosa PAO1 assessed as reduction in bacterial growth; assay type: functional
Pseudomonas aeruginosa [5] = test: Antimicrobial activity against Pseudomonas aeruginosa assessed as reduction in bacterial growth; assay type: functional, organism-based
[6] = Inhibition of bacterial FabH; set-up: species or system Bacteria
[7] = Inhibition of elastase (unknown origin); set-up: species or system Homo sapiens
Pseudomonas aeruginosa [8] = test: Antimicrobial activity against Pseudomonas aeruginosa PA14 assessed as reduction in bacterial growth; assay type: functional
[9] = target: T3, Transcriptional activator protein LasR (Pseudomonas aeruginosa (strain ATCC 15692 / PAO1 / 1C / PRS 101 / LMG12228)) (UniProt P25084); test: Inhibition of Pseudomonas aeruginosa PAO1 LasR at 200 uM relative to control
T3 sequence (whole entry): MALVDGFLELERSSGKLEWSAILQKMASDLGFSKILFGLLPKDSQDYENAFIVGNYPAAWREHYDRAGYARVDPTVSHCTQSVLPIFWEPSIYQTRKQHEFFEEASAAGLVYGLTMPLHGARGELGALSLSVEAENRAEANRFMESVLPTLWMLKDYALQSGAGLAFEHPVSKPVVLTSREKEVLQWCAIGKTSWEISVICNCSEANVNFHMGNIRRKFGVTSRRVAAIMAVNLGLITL

Pseudomonas aeruginosa [10] = test: Antibiofilm activity against Pseudomonas aeruginosa assessed as reduction in biofilm formation at 100 uM; assay type: functional; set-up: scale not given: the % may be the effect or the level left
Pseudomonas aeruginosa [11] = test: Antibiofilm activity against Pseudomonas aeruginosa assessed as reduction in biofilm formation; assay type: functional, organism-based
Pseudomonas aeruginosa [12] = test: Antibiofilm activity against Pseudomonas aeruginosa assessed as reduction in biofilm formation at 100 uM measured after 24 hrs; assay type: functional; set-up: scale not given: the % may be the effect or the level left
Homo sapiens = species on record: Homo sapiens; test: Inhibition of elastase (unknown origin) at 10 uM relative to control
Pseudomonas aeruginosa [13] = test: Inhibition of Pseudomonas aeruginosa PAO1 Pyocyanin at 100 uM relative to control
Pseudomonas aeruginosa [14] = test: Antimicrobial activity against Pseudomonas aeruginosa infected in mouse pneumonia model administered twice a day measured after 48 hrs; assay type: functional
Pseudomonas aeruginosa [15] = test: Downregulation of c-di-GMP level in Pseudomonas aeruginosa PA14 planktonic cells harboring wspR gene mutation at 50 uM incubated for 24 hrs by HPLC analysis; assay type: functional
Pseudomonas aeruginosa [16] = test: Inhibition of Pseudomonas aeruginosa PAO1 Pyocyanin at 250 uM relative to control
[17] = target: Elastase (Pseudomonas aeruginosa (strain ATCC 15692 / PAO1 / 1C / PRS 101 / LMG12228)) (UniProt P14756); test: Inhibition of Pseudomonas aeruginosa PAO1 elastase at 250 uM relative to control
Pseudomonas aeruginosa [18] = test: Inhibition of biofilm formation in Pseudomonas aeruginosa PAO1 assessed as reduction in biofilm formation at 250 uM measured for 2 hrs by scanning confocal laser microscopic analysis; assay type: functional
Pseudomonas aeruginosa [19] = test: Inhibition of Pseudomonas aeruginosa PAO1 Rhamnolipid at 250 uM by spectrophotometrical analysis relative to control

Sequence of Elastase (Pseudomonas aeruginosa (strain ATCC 15692 / PAO1 / 1C / PRS 101 / LMG12228)) (P14756 198-498 limits assumed): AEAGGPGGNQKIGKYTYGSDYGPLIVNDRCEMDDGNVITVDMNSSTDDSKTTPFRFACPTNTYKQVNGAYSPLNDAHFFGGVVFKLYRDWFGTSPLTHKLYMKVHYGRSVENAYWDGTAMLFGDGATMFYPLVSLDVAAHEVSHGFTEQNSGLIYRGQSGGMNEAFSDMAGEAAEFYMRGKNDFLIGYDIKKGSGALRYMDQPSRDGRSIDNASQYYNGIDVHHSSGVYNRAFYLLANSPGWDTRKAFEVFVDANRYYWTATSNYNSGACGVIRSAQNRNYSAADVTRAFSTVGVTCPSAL

SMILES: CCCCCCCC[C@@H]1NC(=O)[C@@H](Cc2ccccc2)NC(=O)[C@H](CCN)NC(=O)[C@@H](NC(=O)[C@H](CCN)NC(=O)[C@@H](NC(=O)[C@H](CCN)NC(=O)CCCCCCC)[C@@H](C)O)CCNC(=O)[C@H]([C@@H](C)O)NC(=O)[C@H](CCN)NC(=O)[C@H](CCN)NC1=O (Octanoyl-[Dab]T[Dab][Dab][Dab][dF][Gly(octyl)][Dab][Dab]T; lactam 4-C)
MIC (Pseudomonas aeruginosa [1]): < 2 µg/mL

SMILES: COc1ccc(/C=C/C(=O)NC[C@H]2O[C@H](OC)[C@@H](O)[C@@H](O)[C@@H]2O)cc1OC
half-life [2]: 5 min | Kd [3]: 11 µM

SMILES: CO[C@H]1O[C@H](CNS(=O)(=O)c2c(C)cc(C)cc2C)[C@@H](O)[C@H](O)[C@@H]1O
half-life [2]: 5 min | Kd [3]: 3.3 µM

SMILES: C[C@@H](Oc1ccc(Cl)cc1Cl)C(=O)NCc1ccc2c(c1)OCO2
IC50 (Hexosaminidase D): 12.5 µM

SMILES: CC(=O)Oc1cccc(C(=O)NCCCC(CCCNC(=O)c2cccc(OC(C)=O)c2OC(C)=O)(CCCNC(=O)c2cccc(OC(C)=O)c2OC(C)=O)NC(=O)CCC(=O)N[C@@H](C(=O)N[C@@H]2C(=O)N3[C@@H]2SC(C)(C)[C@@H]3C(=O)O)c2ccc(O)cc2)c1OC(C)=O
MIC (Pseudomonas aeruginosa [4]): > 200 µM | MIC (Pseudomonas aeruginosa [5]): 0.39 µM

SMILES: CCN(CC)S(=O)(=O)c1cc(C(=O)Nc2ccccc2C(=O)O)ccc1Br
IC50 [6]: 65 µM

SMILES: COc1ccc2[nH]c(SCc3ccc(C)cc3)nc2c1
Activity (Pseudomonas aeruginosa [12]): 50% | IC50 (Pseudomonas aeruginosa [11]): 0.046 µM

SMILES: CCCCCCCCCNC(=O)CC(=O)c1ccccc1
inhibition (Pseudomonas aeruginosa [13]): 90%

SMILES: COc1ccc(-c2ccn(CC[C@](C)(C(=O)NO)S(C)(=O)=O)c(=O)c2)c(F)c1
ED50 (Pseudomonas aeruginosa [14]): < 25 mg/kg

SMILES: O=c1c2ccccc2[se]n1-c1ccccc1 [EBSELEN]
Activity (Pseudomonas aeruginosa [15]): 80%

The next lines start with results.

IC50 [7]: 380 µM
SMILES: COc1cc(/C=C2\S/C(=N\c3ccccc3)N(c3ccccc3)C2=O)cc(OC)c1O

MIC (Pseudomonas aeruginosa [8]): 3.4 µg/mL (≈ 3.7 µM) | MIC (Pseudomonas aeruginosa [5]): 1 µg/mL
SMILES: CO[C@H](C(N)=O)[C@H](NC(=O)c1ccc(NC(=O)c2ccc([N+](=O)[O-])cc2)cc1)C(=O)Nc1ccc(C(=O)Nc2ccc(C(=O)Nc3ccc(C(=O)O)cc3OC(C)C)c(O)c2OC(C)C)cc1

inhibition [9]: 66%
SMILES: O=C(CCCc1c[nH]c2ccccc12)N[C@H]1CCOC1=O

IC50 (Pseudomonas aeruginosa [11]): 26 µM
SMILES: O=C(Nc1ccc(Nc2ccccc2)cc1)c1ccccc1
Activity (Pseudomonas aeruginosa [10]): 22%

inhibition (Homo sapiens): 50%
SMILES: CCCCCCCCCC(=O)CC(=O)Nc1ccccc1O

inhibition (Pseudomonas aeruginosa [16]): 64% | inhibition [17]: 77% | inhibition (Pseudomonas aeruginosa [19]): 87%
SMILES: CCCCCCCCCC(=O)NC1CCCC1 [N-CYCLOPENTYLDECANAMIDE]
inhibition at 250 µM (Pseudomonas aeruginosa [18]): 100%
